Test results: patent US11325921B2, “Optically active crosslinked cyclic secondary amine derivative” (Sumitomo Dainippon Pharma Co., Ltd., priority 2018, dated 2022)
Like-named read-outs stand apart in the source and are kept apart here.

Experiments:
[1] = Test 4: pharmacokinetic study; format: in vivo; conditions: male SD rat, oral, 10 mg/kg; for AUC(0-t): plasma, 24 hours; for compound-exposure in plasma (in words): summary of the table
Protocol: The test compound suspended in 0.5% methylcellulose was orally administered to 7-week-old male SD rat in a dose of 10 mg/kg. The blood sample was taken from jugular vein without anesthesia over time for 24 hours. The blood sample was centrifuged to obtain plasma. The plasma was pre-treated by methanol extraction method, and then analyzed with an LC-MS/MS to determine the concentration of the test compound. Based on the data from 0 hour after the administration until the time (t) when there was the final detection in the plasma, AUC was calculated by trapezoidal method.

[2] = target: Menin-MLL binding (His-Menin1-615 / MLL1-172-FLAG) (Homo sapiens (Human), UniProt O00255); test: Test 1: inhibition of the Menin-MLL binding (HTRF); conditions: for Menin-MLL binding inhibition activity (in words): summary of the table
Chain of Menin-MLL binding (His-Menin1-615 / MLL1-172-FLAG) (O00255 other isoform, or with tags, fused parts or gaps): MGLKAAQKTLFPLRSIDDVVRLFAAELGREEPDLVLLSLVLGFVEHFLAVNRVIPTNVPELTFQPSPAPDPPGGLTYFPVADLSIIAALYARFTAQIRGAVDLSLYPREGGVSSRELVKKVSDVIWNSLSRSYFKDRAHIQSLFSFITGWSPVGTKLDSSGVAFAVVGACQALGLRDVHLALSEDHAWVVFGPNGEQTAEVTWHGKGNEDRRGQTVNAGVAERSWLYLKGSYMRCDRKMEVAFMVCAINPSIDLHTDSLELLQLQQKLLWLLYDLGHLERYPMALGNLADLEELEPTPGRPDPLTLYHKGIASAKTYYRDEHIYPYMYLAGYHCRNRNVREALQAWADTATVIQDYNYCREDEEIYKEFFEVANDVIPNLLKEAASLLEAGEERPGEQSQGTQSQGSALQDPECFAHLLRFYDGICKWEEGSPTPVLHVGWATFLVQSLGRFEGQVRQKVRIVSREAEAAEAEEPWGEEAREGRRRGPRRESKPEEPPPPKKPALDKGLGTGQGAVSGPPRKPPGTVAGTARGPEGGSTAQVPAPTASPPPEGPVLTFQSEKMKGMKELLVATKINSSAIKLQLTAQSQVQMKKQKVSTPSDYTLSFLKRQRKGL
Protocol: Menin1-615 wherein 6× His tag and HA tag are inserted in the N-terminus, and myc tag is inserted in the C-terminus (hereinafter, referred to as His-Menin1-615), was diluted with an assay buffer (25 mmol/L HEPES, 150 mmol/L NaCl, 1 mmol/L dithiothreitol, 0.5% (w/v) Tween 80, 0.3% (w/v) BSA, 0.3% (w/v) skim milk) to adjust the final concentration Lo 30 nmol/L. The test compounds were also diluted with the assay buffer to adjust each concentration of the test compounds to 0.005 to 5 μmol/L. The prepared His-Menin1-615 and test compounds were added to a light-shielding 384-well low-volume plate (Corning, #4514) in 2 μL/well and 6 μL/well, respectively, and the plate was covered with a lid for light-shielding (Corning, r-3935), and incubated at room temperature for 3 hours. After the incubation, MLL1-172 wherein FLAG tag is inserted in the C-terminus (MLL1-172-FLAG), was separately diluted with the assay buffer to adjust the final concentration to 50 nmol/L. The prepared MLL1-172-FLAG was added to the above plate in 2 μL/well, and the plate was covered with a lid for light-shielding and incubated at room temperature for an hour.
Then, anti-6HIS-d2 antibody (cisbio, 61HISDLA) and anti-FLAGM2-K antibody (cisbio, 61FG2KLA) were diluted with an antibody dilution buffer (50 mmol/L Tris, 150 mmol/L NaCl, 800 mmol/L KF, pH 7.4) to adjust the final concentration to 1.4 μg/mL to prepare an antibody mixture. The prepared antibody mixture was added to the above plate in 10 μL/well, and the plate was covered with a lid and incubated at 4° C. for 17 to 24 hours. After the incubation, the signal was detected with RUBYstar (BMG LABTECH). The binding inhibition rate (%) at each concentration of the test compounds was calculated from the following formula, and the IC50 value was obtained, that corresponds to the concentration of the test compound at which the binding inhibition rate is 50%.

[3] = tested on: HOXA9 mRNA in MV4; 11 cells; test: Test 3: inhibition of mRNA transcription, HOXA9; format: cell-based; conditions: 20 to 24 hours, fitted with GAPDH; for mrna remaining at 1 µM: Homo sapiens, read-out: mRNA at 1 μM (% control) HOXA9
Protocol: (§1) MV4; 11 cells were obtained from American Type Culture Collection (ATCC). The cells were cultured at 37° C. in the presence of 5% CO2 in RPMI 1640 medium containing 10% fetal bovine serum and 1% penicillin/streptomycin. To the MV4; 11 cells was added each test compound to adjust the final concentration to 1 μmol/L, and the cells were cultured at 37° C. in the presence of 5% CO2 for 20 to 24 hours. After the incubation, the total RNA was extracted from the cells with RNeasy™ Mini Kit (QIAGEN, 74106), and cDNA was synthesized with Superscript™ VILO™ cDNA Synthesis Kit (Invitrogen, #11754250). By using TaqMan™ Gene Expression Master Mix (Applied Biosystems, 4369016) and TaqMan™ probe (Applied Biosystems), the expression level of mRNA was quantified from the obtained cDNA with 7900HT (Applied biosystems). The mRNA expression level of each obtained gene was fitted with the expression level of mRNA of GAPDH.

[4] = tested on: MEIS1 mRNA in MV4; 11 cells; test: Test 3: inhibition of mRNA transcription, MEIS1; format: cell-based; conditions: for mRNA transcription inhibition activity (in words): MEIS1 and HOXA9, MV4, 1 μM, summary of the table; for mrna remaining at 1 µM: Homo sapiens, read-out: mRNA at 1 μM (% control) MEIS1
Protocol: as §1

MOLM-13 cells = test: Test 2: inhibition of cell proliferation, MOLM-13; format: cell-based; conditions: cultured 7 days, PrestoBlue
Protocol: (§2) RS4; 11 cells were obtained from American Type Culture Collection (ATCC). The cells were cultured at 37° C. in the presence of 5% CO2 in RPMI 1640 medium containing 10% fetal bovine serum and 1% penicillin/streptomycin. MOLM-13 cells were separately obtained from DSMZ. The cells were cultured at 37° C. in the presence of 5% CO2 in RPMI 1640 medium containing 20% fetal bovine serum and 1% penicillin/streptomycin.
(§3) The cells were plated to a 96-well plate in 2000 cells/well, each test compound was added thereto to adjust the final concentration of DMSO to 0.1% of DMSO, and the cells were cultured for 7 days. After the cultivation, the cell viability was calculated with PrestoBlue™ Cell Viability Reagent (Invitrogen, A13261). The IC50 value was calculated from a survival curve, that corresponds to the concentration of the test compound at which the cell proliferation inhibition rate is 50%.

RS4; 11 cells = test: Test 2: inhibition of cell proliferation, RS4; 11; format: cell-based; conditions: for cell proliferation inhibition activity (in words, good) / cell proliferation inhibitory activity (in words, potent): 11 and MOLM-13 cells, summary of the table; for cell proliferation inhibitory activity (in words, potent): 'especially'; for IC50: 11 cells, cultured 7 days, PrestoBlue
Protocol: as §2, §3

[5] = MV4, 20 to 24 hours, fitted with GAPDH

| Molecule | AUC(0-t) [1] [ng·h/mL] | IC50 [2] [nM] | Menin-MLL binding inhibition activity (in words) [2] | mRNA at 1 μM (% control) HOXA9 [3] [% control] | mRNA transcription inhibition activity (in words) [4] | mRNA at 1 μM (% control) MEIS1 [4, 5] [% control] | IC50 (MOLM-13 cells) [nM] | cell proliferation inhibition activity (in words, good) (RS4; 11 cells) | cell proliferation inhibitory activity (in words, potent) (RS4; 11 cells) | IC50 (RS4; 11 cells) [nM] | AUC(0-t) ([1]; read-out: AUC0-t) [ng·h/mL] | compound-exposure in plasma (in words) [1] | mrna remaining at 1 µM [3] [%] | mrna remaining at 1 µM [4, 5] [%] | IC50 (MOLM-13 cells; Homo sapiens, 168 h) [nM] | IC50 (RS4; 11 cells; Homo sapiens, 168 h) [nM] |
| --- | --- | --- | --- | --- | --- | --- | --- | --- | --- | --- | --- | --- | --- | --- | --- | --- |
| 4-{6-[(1S,3S,4S,5S)-5-fluoro-2-azabicyclo[2.2.2]octane-3-carbonyl]-2,6-diazaspiro[3.3]heptan-2-y}-2-(2,2,2-trifluoroethyl)thieno[2,3-b]pyridine-5-carbonitrile [Example 22] | 244 | 6.2 | potent | 37.0 | showed the mRNA transcription inhibition activity | 18.1 | 90 | good | potent | 100 | – | – | – | – | – | – |
| O=C([C@H]1N[C@H]2CC[C@@H]1[C@@H](F)C2)N1CC2(C1)CN(c1c(C(F)(F)F)cnc3sc(CC(F)(F)F)cc13)C2 [Example 1, {(1S,3S,4S,5S)-5-Fluoro-2-azabicyclo[2.2.2]octan-3-yl}{6-[2-(2,2,2-trifluoroethyl)-5-(trifluoromethyl)thieno[2,3-b]pyridin-4-yl]-2,6-diazaspiro[3.3]heptan-2-yl}methanone] | – | 13.3 | potent | – | showed the mRNA transcription inhibition activity | – | – | good | potent | – | 2410 | good compound-exposure in plasma | 43.3 | 18 | 80 | 90 |
| O=C([C@H]1N[C@@H]2CC[C@H]1C2)N1CC2(C1)CN(c1c(C(F)(F)F)cnc3sc(CC(F)(F)F)cc13)C2 [Example 2, [(1R,3S,4S)-2-azabicyclo[2.2.1]heptan-3-yl]{6-[2-(2,2,2-trifluoroethyl)-5-(trifluoromethyl)thieno[2,3-b]pyridin-4-yl]-2,6-diazaspiro[3.3]heptan-2-yl}methanone] | – | 17.8 | – | – | – | – | – | – | – | – | 1960 | good compound-exposure in plasma | 34.3 | 32 | 260 | 200 |
| O=C([C@H]1NC2CCC1CC2)N1CC2(C1)CN(c1c(C(F)(F)F)cnc3sc(CC(F)(F)F)cc13)C2 [Example 3, [(3S)-2-azabicyclo[2.2.2]octan-3-yl]{6-[2-(2,2,2-trifluoroethyl)-5-(trifluoromethyl)thieno[2,3-b]pyridin-4-yl]-2,6-diazaspiro[3.3]heptan-2-yl}methanone] | – | 31.8 | – | – | – | – | – | – | – | – | 1210 | good compound-exposure in plasma | 32 | 18.7 | 210 | 200 |
| O=C([C@H]1N[C@H]2C[C@@H]1[C@@H](F)C2)N1CC2(C1)CN(c1c(C(F)(F)F)cnc3sc(CC(F)(F)F)cc13)C2 [Example 9, [(1S,3S,4S,5S)-5-fluoro-2-azabicyclo[2.2.1]heptan-3-yl]{6-[2-(2,2,2-trifluoroethyl)-5-(trifluoromethyl)thieno[2,3-b]pyridin-4-yl]-2,6-diazaspiro[3.3]heptan-2-yl}methanone] | – | 31.7 | – | – | – | – | – | – | – | – | 3750 | good compound-exposure in plasma | 49.4 | 34.2 | 280 | 170 |
| N#Cc1cnc2sc(CC(F)(F)F)cc2c1N1CC2(CN(C(=O)[C@H]3N[C@H]4CC[C@@H]3C(F)(F)C4)C2)C1 [Example 23, 4-{6-[(1S,3S,4S)-5,5-difluoro-2-azabicyclo[2.2.2]octane-3-carbonyl]-2,6-diazaspiro[3.3]heptan-2-yl}-2-(2,2,2-trifluoroethyl)thieno[2,3-b]pyridine-5-carbonitrile] | – | 11 | – | – | – | – | – | – | – | – | 668 | – | 49.3 | 45.4 | 290 | 280 |
